In PMC7912516, “New Antimicrobials Based on the Adarotene Scaffold with Activity against Multi-Drug Resistant Staphylococcus aureus and Vancomycin-Resistant Enterococcus” (Antibiotics, 2021):
Several values for one entry are separate records, joined by “and”; a condition that tells them apart may be missing. Equal entries are not always repeated. Where two headings read alike, the source gives them in different places.

Assays:
[1] = tested on: methicillin-resistant S. aureus (MRSA) strain MW2; design: method as in PMID 29590091; settings: ref [12]; cited from earlier work
[2] = tested on: S. aureus strain 1 (MDR clinical isolate, MRSA, mecA positive); test: MIC/MBC by broth micro-dilution (CLSI); assay type: cell-based, Staphylococcus aureus; settings: S. aureus Strain 1; for MBC: in square brackets
Procedure: (§1) The compounds were initially tested with a methicillin-resistant S. aureus and an E. faecalis clinical isolates (details in the experimental section), two MDR strains according to definition by Magiorakos et al.. The activity of studied compounds was assessed by broth micro-dilution method. Minimal Inhibitory Concentration (MIC), and Minimal Bactericidal Concentration (MBC) were determined and possible bacteriostatic or bactericidal activity was also investigated.
(§2) MICs and MBCs were determined according to CLSI (Clinical and Laboratory Standards Institute) guidelines, in triplicate. Results are shown as modal values of the three replicates. According to MIC and MBC data, the killing rate was calculated as the ratio between MBC and MIC on which basis it is possible to define the compounds tested as bactericides (killing rate = 1–4), or bacteriostatic (killing rate > 4).
(§3) Preparation of the solution containing molecules: for each molecule to be tested, solutions were made as DMSO stock, with a concentration of 2.560 mg/mL. Scalar dilutions were than prepared directly on plates by using Mueller Hinton Broth (MHB) as a growth medium (range 0.5–256 µg/mL).
(§4) Bacterial suspension preparation: cryostrains preserved at −80 °C were recovered by incubation in growth medium (Brain Heart Infusion Broth, BHI) for 24–48 h at 35 ± 2 °C followed by passages in agar growth medium (Columbia Blood Agar). Colonies with less than 30 h were suspended in MHB with the purpose to prepare a bacterial suspension with a turbidity of 0.5 MF, containing approximately 1.5 × 10^8 cfu/mL. This suspension was than diluted in MHB until reaching a final concentration of 5 × 10^4 CFU/well. Simultaneously, check in broth-microdilution only with solvent (in order to exclude that the effect of growth inhibition might be due to the drug solution solvent), positive growth control in absence of DMSO and drug, and negative purity control only with injection broth were performed.
S. aureus strain 1 (collection, MDR): mecA positive; MRSA, β-lactamase positive, resistant to ciprofloxacin, gentamicin and erythromycin.

[3] = tested on: E. faecalis strain 1 (MDR clinical isolate); test: MIC/MBC by broth micro-dilution (CLSI); assay type: cell-based, Enterococcus faecalis; settings: for MBC: in square brackets
Procedure: as §1, §2, §3, §4
E. faecalis strain 1 (collection, MDR) vanA/B negative; aminoglycosides high-level resistant to aminoglycosides (gentamicin and streptomycin) and ampicillin.

[4] = tested on: tumor cell line H-460 NCI; test: Cytotoxic activity, inhibition of cell growth; assay type: cell-based; settings: Homo sapiens, NCI-H460; H-460 cell line, unpublished results; ± SD; read-out: IC50 (concentration required for 50% inhibition of cell growth)
Excerpt: Table 1 Antimicrobial activity of adarotene derivatives 1–20 against MDR clinical strains of S. aureus and E. faecalis and cytotoxic activity. | column: IC50 ^a (µM)

[5] = Staphylococcus aureus, MRSA, modal value of three replicates, read-out: MIC
[6] = Staphylococcus aureus, MRSA, modal value, read-out: MIC
[7] = Enterococcus faecalis, modal value of three replicates, read-out: MIC
[8] = Enterococcus faecalis, modal value, read-out: MIC
[9] = modal value of three replicates
[10] = Staphylococcus aureus, MRSA, modal value
[11] = Enterococcus faecalis, modal value

MIC [2, 5] [µg/mL] | MIC [2, 6] [µM] | MIC [3, 7] [µg/mL] | MIC [3, 8] [µM] | MIC [2, 9] [µg/mL] | MIC [3, 9] [µg/mL] | SMILES | activity against MRSA strain MW2 [1] | IC50 [4] [µM] | MBC [2, 10] | MBC [3, 11]
 |  |  |  |  |  | O=C(O)c1ccc2cc(-c3ccc(O)c(C45CC6CC(CC(C6)C4)C5)c3)ccc2c1 [CD437] | exhibit activity |  |  | 
 |  |  |  |  |  | O=C(O)c1ccc(-c2ccc3cc(O)c(C45CC6CC(CC(C6)C4)C5)cc3c2)cc1 [CD1530] | exhibit activity |  |  | 
32 | 50 | 128 | 201 |  |  | CCCCC/C=C\C/C=C\CCCCCCCC(=O)Oc1ccc(-c2ccc(/C=C/C(=O)O)cc2)cc1C12CC3CC(CC(C3)C1)C2 [Compound 3] |  | 7.8 ± 0.7 |  | 
2 to 4 | 5 | 1 to 4 | 2 | 2 | 1 | N#C/C(=C\c1ccc(-c2ccc(O)c(C34CC5CC(CC(C5)C3)C4)c2)cc1)C(=O)O [Compound 9] |  | > 10 | 4 µg/mL and 10 µM | 4 µg/mL and 10 µM
8 | 15 | 4 | 8 |  |  | O=C(O)/C=C/c1ccc(-c2cc(CNC(=O)Nc3ccccc3)c(O)c(C34CC5CC(CC(C5)C3)C4)c2)cc1 [Compound 14] |  | > 10 | 8 µg/mL and 15 µM | 16 µg/mL and 31 µM
